Data reported in patent US6649654B1, “Methods for identifying and using IKK inhibitors” (The Regents of the University of California, priority 1999, dated 2003).

How the values were obtained:
IKK [1] = target: T1, IKK (Homo sapiens, UniProt O14920+O15111); assay: In vitro kinase assay of IKK immunoprecipitated from TNFα-stimulated HeLa cells; type: biochemical; parameters: Endogenous IKK was immunoprecipitated from TNFα-stimulated HeLa cells; endogenous in cells; host or cells: HeLa; conditions: immunoprecipitated IKK, 100 μM (LTB4 2 μM, 15dPGJ2 10 μM)
T1 sequence (O15111 whole entry, one chain of several): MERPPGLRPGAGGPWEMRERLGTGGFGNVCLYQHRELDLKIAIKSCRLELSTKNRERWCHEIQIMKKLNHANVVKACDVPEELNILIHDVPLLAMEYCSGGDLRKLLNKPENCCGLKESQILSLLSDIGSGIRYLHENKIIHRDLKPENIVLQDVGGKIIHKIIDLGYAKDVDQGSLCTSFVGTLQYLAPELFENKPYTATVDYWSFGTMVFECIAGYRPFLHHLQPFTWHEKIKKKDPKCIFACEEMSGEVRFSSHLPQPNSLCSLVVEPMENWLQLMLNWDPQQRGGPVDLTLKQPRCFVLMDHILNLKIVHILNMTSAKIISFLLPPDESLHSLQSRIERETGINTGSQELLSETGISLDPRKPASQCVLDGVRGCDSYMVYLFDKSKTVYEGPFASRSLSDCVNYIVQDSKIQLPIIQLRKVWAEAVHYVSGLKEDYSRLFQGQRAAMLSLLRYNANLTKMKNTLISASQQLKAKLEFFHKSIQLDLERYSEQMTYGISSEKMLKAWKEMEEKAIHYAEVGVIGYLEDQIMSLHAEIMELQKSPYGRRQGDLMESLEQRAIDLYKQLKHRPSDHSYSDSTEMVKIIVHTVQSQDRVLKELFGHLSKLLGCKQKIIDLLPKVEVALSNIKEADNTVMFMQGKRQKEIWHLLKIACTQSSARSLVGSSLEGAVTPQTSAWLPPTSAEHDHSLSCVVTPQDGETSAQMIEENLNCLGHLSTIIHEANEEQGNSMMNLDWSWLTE
T1 sequence (Q9Y6K9 whole entry partner, one chain of several): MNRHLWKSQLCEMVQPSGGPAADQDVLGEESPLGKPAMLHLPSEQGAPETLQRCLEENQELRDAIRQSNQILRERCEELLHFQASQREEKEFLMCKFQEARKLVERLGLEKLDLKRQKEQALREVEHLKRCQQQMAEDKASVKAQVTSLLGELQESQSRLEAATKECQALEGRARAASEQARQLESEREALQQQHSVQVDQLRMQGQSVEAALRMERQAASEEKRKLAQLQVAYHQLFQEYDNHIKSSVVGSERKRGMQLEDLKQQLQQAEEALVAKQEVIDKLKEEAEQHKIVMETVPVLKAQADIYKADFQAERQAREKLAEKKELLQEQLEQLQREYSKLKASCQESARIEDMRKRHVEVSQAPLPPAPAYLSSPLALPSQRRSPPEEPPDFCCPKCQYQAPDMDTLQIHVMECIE
Method: (§1) Cell lysates were incubated with anti-IKKα (Pharmingen), anti-HA (12CA5; Pharmingen), anti-JNK1 (333.8; Pharmingen), or anti-p38 (New England Biolabs) for 2 hours. Then, 15 μl protein A-Sepharose (Sigma) were added and the mixture was allowed to incubate for 1 hour. After extensive washing, kinase assays were performed as known in the art (See e.g., DiDonato et al., Nature 388:548-554 [1997]). Endogenous IKK, HA-tagged IKKα, endogenous JNK1, and p38 activities were determined with GST-1κBα(1-54), GST-c-Jun(1-79), and GST-ATF2 as substrates.
Endogenous IKK was immunoprecipitated from TNFα-stimulated HeLa cells and the kinase activity determined in the presence of different concentrations of PGA1 (the results of which are shown in FIG. 2B) or 15dPGJ2 (the results of which are shown in FIG. 2C).
(§2) In this Example, experiments to determined the effects of arachidonic acid and its metabolites on IKK activity in vivo and in vitro are described. HeLa cells were treated with 50 μM AA, PGA1, PGB2, PGD2, PGE1, PGE2, PGF1α, or thromboxane B2 (T×B2), 1 μM LTB4, or 5 μM 15dPGJ2, for 2 hours in RPMI containing 10% FCS, and stimulated with TNFα for 10 minutes. Cell lysates were then assayed for endogenous IKK activity and recovery. In this FIGURE, “control” indicates unstimulated cells, and “-” indicates treatment with diluent alone. In addition, IKK was immunoprecipitated from TNFα-stimulated HeLA cells and incubated in vitro with 100 μM AA, PGA1, PGB2, PGD2, PGE1, PGE2, PGF1α, or T×B2, 2 μM LTB4 or 10 μM 15dPGJ2, followed by kinase assay and immunoblot analysis. In this FIGURE, “control” indicates to unstimulated cells, and “-”indicates 1% ethanol.
Many protein kinase inhibitors compete with binding of ATP, but preincubation in the presence of increasing concentrations of ATP had no effect on inhibition of IKKβ by 15dPGJ2, as indicated in FIG. 6A. […] The pellets were rinsed and kinase activity was measured.

IKK [2] = target: T1, IKK; assay: Endogenous IKK activity (kinase assay) in treated, stimulated HeLa cells; type: cell-based; parameters: Endogenous IKK was immunoprecipitated from TNFα-stimulated HeLa cells; endogenous in cells; host or cells: HeLa; conditions: HeLa cells, 50 μM (LTB4 1 μM, 15dPGJ2 5 μM) 2 hours, TNFα 10 minutes
Method: (§3) Cells used in the experiments described herein were cultured in either RPMI 1640 (Jurkat cells) or DMEM (HeLa and COS cells), supplemented with 10% FBS and antibiotics. Cells were stimulated with either 25 ng/ml TPA, 20 ng/ml recombinant TNFα, or 10 ng/ml interleukin 1β (Sigma). PGA1, 15dPGJ2, T×B2, LTB4, AA and other PGs (Cayman) dissolved in ethanol were used as well, as known in the art (See e.g., Rossi et al., 94:746-750 [1997]). Controls received equal amounts of ethanol. Transfections were performed using Lipofectamine Plus (GIBCO) for HeLa and COS cells and DEAE-dextran (Sigma) for Jurkat cells. Xpress-tagged NIK, Xpress-tagged MEKK1, HA-tagged IKKα, and HA-tagged IKKβ were also used (See e.g., Zandi et al., Science 281:1360-1363 [1998]; and Delhase et al., Science 284:309-313 [1999]). COX2 and cPLA2 expression vectors were obtained from Dr. L. Feng (See also, Hirose et al., J. Am. Soc. Nephrol., 9:408-416 [1998]). PGD synthase was cloned from HT29 colon carcinoma cell line cDNA by PCR and subcloned into a pCDNA3 vector. Cells were lysed in buffer B (50 mM Tris-HCl, pH 7.5, 400 mM NaCl, 1 mM EDTA, 1 mM EGTA, 1% Triton, 0.5% NP-40, 10% glycerol, and supplemented with 20 mM β-glycerophosphate, 10 mM PNPP, […] 1 mM PMSF, 20 μg/ml aprotinin, 2.5 μg/ml leupeptin, 8.3 μg/ml bestatin, 1.7 μg/ml pepstatin, and 2 mM DTT).
as §1, §2

IKKβ = target: T2, IKKβ (Homo sapiens, UniProt O14920); parameters: FLAG; made in house; host or cells: Sf9 (baculovirus); conditions: high concentrations; Yin et al.; cited from earlier work
T2 sequence (O14920 1-756): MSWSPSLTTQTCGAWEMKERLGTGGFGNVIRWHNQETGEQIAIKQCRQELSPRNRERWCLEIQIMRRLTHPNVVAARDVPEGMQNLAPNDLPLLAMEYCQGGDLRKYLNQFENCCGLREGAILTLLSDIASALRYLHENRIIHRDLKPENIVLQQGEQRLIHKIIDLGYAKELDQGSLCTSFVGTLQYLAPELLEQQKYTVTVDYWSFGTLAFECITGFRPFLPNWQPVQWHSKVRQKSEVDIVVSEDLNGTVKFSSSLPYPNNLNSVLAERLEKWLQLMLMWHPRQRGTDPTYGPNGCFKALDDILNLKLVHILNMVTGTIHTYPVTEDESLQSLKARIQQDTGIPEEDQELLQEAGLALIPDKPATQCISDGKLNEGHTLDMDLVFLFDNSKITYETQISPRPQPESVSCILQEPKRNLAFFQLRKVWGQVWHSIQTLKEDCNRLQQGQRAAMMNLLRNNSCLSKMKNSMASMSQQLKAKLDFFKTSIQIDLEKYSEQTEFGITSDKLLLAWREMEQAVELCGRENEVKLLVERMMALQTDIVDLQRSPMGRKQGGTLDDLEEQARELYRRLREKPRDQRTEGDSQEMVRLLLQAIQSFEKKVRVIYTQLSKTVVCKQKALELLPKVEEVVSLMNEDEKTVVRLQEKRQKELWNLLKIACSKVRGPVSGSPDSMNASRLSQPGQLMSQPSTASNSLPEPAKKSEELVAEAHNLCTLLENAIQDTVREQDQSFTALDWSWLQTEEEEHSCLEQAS

NF-κB = NF-κB activation / DNA-binding activity by EMSA in stimulated HeLa cells; type: cell-based, human; conditions: HeLa cells stimulated with TNFα (PGA1: IL-1 or TNFα)
Method: as §3
Aliquots of total extracts (15 μg protein) in buffer B were incubated with a ^32P-labeled κB DNA, followed by analysis of DNA-binding activities by EMSA on 4% PAGE gels, as known in the art (See, Rossi et al., supra). Specificity of protein-DNA complexes was verified by supershift with polyclonal antibodies specific for p65 (Rel A).

Structure (SMILES) | effect on IKK activity in vitro, FIG. 5B (IKK [1]) | effect on IKK activity in vivo (cells), FIG. 5A (IKK [2]) | inhibition of IKKβ (IKKβ) | effect on NF-κB activation (NF-κB)
CCCCC/C=C\C/C=C\C/C=C\C/C=C\CCCC(=O)O [Arachidonic acid, arachidonic acid] | ineffective | ineffective | – | –
CCCCC[C@H](O)/C=C/[C@@H]1[C@@H](CCCCCCC(=O)O)[C@@H](O)C[C@H]1O [PGF1α] | ineffective | ineffective | – | –
CC(=O)Oc1ccccc1C(=O)O [aspirin] | – | – | inhibited | –
Cc1c(C)c2c(c(C)c1O)CCC(C)(COc1ccc(CC3SC(=O)NC3=O)cc1)O2 (stereo not drawn) [troglitazone, reference compound] | – | – | – | does not inhibit

The next lines start with results.

effect on IKK activity in vitro, FIG. 5B (IKK [1]) | effect on IKK activity in vivo (cells), FIG. 5A (IKK [2]) | Structure (SMILES) | inhibition of IKKβ (IKKβ) | effect on NF-κB activation (NF-κB)
ineffective | ineffective | CCCCC[C@H](O)/C=C/C1=C(C/C=C\CCCC(=O)O)C(=O)CC1 [PGB2] | – | –
ineffective | ineffective | CCCCC[C@H](O)/C=C/[C@H]1C(=O)C[C@H](O)[C@@H]1C/C=C\CCCC(=O)O [PGD2] | – | –
ineffective | ineffective | CCCCC[C@H](O)/C=C/[C@H]1[C@H](O)CC(=O)[C@@H]1CCCCCCC(=O)O [PGE1] | – | –
ineffective | ineffective | CCCCC[C@H](O)/C=C/[C@H]1[C@H](O)CC(=O)[C@@H]1C/C=C\CCCC(=O)O [PGE2] | – | –
ineffective | ineffective | CCCCC/C=C\C[C@@H](O)/C=C/C=C/C=C\[C@@H](O)CCCC(=O)O [leukotriene B4] | – | –
ineffective | ineffective | CCCCC[C@H](O)/C=C/[C@H]1OC(O)C[C@H](O)[C@@H]1C/C=C\CCCC(=O)O (stereo partly drawn) [thromboxane B2] | – | –
